Test results as given in patent US20130045952A1, “ABA Receptor Agonists for Increased Plant Stress Resistance” (Van Andel Research Institute, priority 2011, published 2013).

The compounds below were run against T1, His6-PYR1 / biotin-PP2C (Arabidopsis thaliana, UniProt O49686) (assay: AlphaScreen luminescence proximity assay, PYR1-PP2C interaction). Conditions: 100 nM His6-PYR1, 100 nM biotin-PP2C, 100 μM agonist; normalized against a pyrabactin control.
T1 construct: made in house; host or cells: E. coli is stated for PYL1, PYL2 and the PP2Cs, not expressly for PYR1
T1 sequence (O49686 1-191): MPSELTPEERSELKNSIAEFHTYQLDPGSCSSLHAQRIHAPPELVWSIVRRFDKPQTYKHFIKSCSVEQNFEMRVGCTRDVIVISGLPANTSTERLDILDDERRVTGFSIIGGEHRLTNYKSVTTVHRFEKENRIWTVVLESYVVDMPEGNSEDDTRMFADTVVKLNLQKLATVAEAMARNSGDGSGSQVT
Format: biochemical
Protocol: (§1) Mutant proteins were expressed as H6GST-fusion proteins and purified by glutathione sepharose chromatography. Protein-protein interactions were determined by luminescence proximity AlphaScreen assay. Biotinylated PP2C proteins for the luminescence proximity assay were generated by in vivo biotinylation of avitag-PP2C fusion proteins. PP2C phosphatase activity was measured by phosphate release from a SnRK2.6 phosphoprotein.
(§2) Interactions between PYR/PYL and PP2Cs were assessed by luminescence-proximity AlphaScreen technology (Perkin Elmer). Briefly, biotinylated PP2Cs were attached to streptavidin-coated donor beads, and H6-tagged PYR/PYL receptors were attached to nickel-chelated acceptor beads. The donor and acceptor beads were brought into proximity by the interactions between PYR/PYLs and PP2Cs, which were measured with and without ligands. When excited by a laser beam of 680 nm, the donor beam emits singlet oxygen that activates thioxene derivatives in the acceptor beads, which releases photons of 520-620 nm as the binding signal. The experiments were conducted with 100 nM of PP2Cs and PYR/PYL proteins in the presence of 5 ug/ml donor and acceptor beads in a buffer of 50 mM MOPS, pH7.4, 50 mM NaF, […], and 0.1 mg/ml bovine serum albumin. The results were based on an average of three experiments with standard errors typically less than 10% of the measurements.
(§3) Values were determined in different experiments and normalized against a pyrabactin control. Blank spaces mean no experimental data is available. Key (photon counts (binding signal units) in Alphascreen luminescence proximity assay): “+++ is >75,000; ++ is 25,000−75,000; + is <25,000.
For `O=S(=O)(NCc1ccccn1)c1ccc2ccccc2c1` [Compound 4], the “Stimulation of the interaction between PYR1 and PP2C (binding signal)” value was “+++ (+++ is >75,000)”.
`CC(C)c1ccccc1OCCNS(=O)(=O)c1ccc2ccccc2c1` [Compound 7] was tested, and the “Stimulation of the interaction between PYR1 and PP2C (binding signal)” value was “++ (++ is 25,000−75,000)”.
In the case of `O=S(=O)(NC[C@@H]1CCCO1)c1ccc(Br)c2ccccc12` [Compound 12], the “Stimulation of the interaction between PYR1 and PP2C (binding signal)” value was “+++ (+++ is >75,000)”.
In the case of `CCCN(CCC)C(=O)[C@@H](CCC(=O)O)NS(=O)(=O)c1ccc(C)cc1` [Compound 13], the “Stimulation of the interaction between PYR1 and PP2C (binding signal)” value was “+ (+ is <25,000)”.
With `CC1(C)CC(=O)C(/C=N/CCc2ccc(S(N)(=O)=O)cc2)=C(O)C1` [Compound 10] the “Stimulation of the interaction between PYR1 and PP2C (binding signal)” value was “+ (+ is <25,000)”.
For `Cc1ccc(C(=O)O)cc1NC(=S)NC(=O)c1ccccc1Cl` [Compound 14], the “Stimulation of the interaction between PYR1 and PP2C (binding signal)” value was “+ (+ is <25,000)”.

The compounds below were run against T2, His6-PYL1 / biotin-PP2C (Arabidopsis thaliana, UniProt Q8VZS8) (assay: AlphaScreen luminescence proximity assay, PYL1-PP2C interaction). Conditions: 100 nM His6-PYL1, 100 nM biotin-PP2C, 100 μM agonist; normalized against a pyrabactin control.
T2 construct: PYL1 (residues 36-211), PYL2 (residues 14-188), and HAB1 (residues 172-511) were prepared as recombinant proteins in E. coli; made in house; host or cells: E. coli
T2 sequence (Q8VZS8 36-211): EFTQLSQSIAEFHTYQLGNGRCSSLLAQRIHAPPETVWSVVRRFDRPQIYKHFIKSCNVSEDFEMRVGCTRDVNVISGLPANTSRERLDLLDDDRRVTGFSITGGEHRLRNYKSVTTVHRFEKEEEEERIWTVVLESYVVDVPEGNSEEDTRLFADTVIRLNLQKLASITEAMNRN
Format: biochemical
Protocol: as §1, §2, §3
For `CC(C)c1ccccc1OCCNS(=O)(=O)c1ccc2ccccc2c1` [Compound 7], the “Stimulation of the interaction between PYL1 and PP2C (binding signal)” value was “++ (++ is 25,000−75,000)”.

What follows are compounds tested against T3, His6-PYL2 / biotin-PP2C (Arabidopsis thaliana, UniProt O80992) (assay: AlphaScreen luminescence proximity assay, PYL2-PP2C interaction). Conditions: 100 nM His6-PYL2, 100 nM biotin-PP2C, 100 μM agonist; normalized against a pyrabactin control.
T3 construct: PYL2 (residues 14-188), and HAB1 (residues 172-511) were prepared as recombinant proteins in E. coli; made in house; host or cells: E. coli
T3 sequence (O80992 14-188): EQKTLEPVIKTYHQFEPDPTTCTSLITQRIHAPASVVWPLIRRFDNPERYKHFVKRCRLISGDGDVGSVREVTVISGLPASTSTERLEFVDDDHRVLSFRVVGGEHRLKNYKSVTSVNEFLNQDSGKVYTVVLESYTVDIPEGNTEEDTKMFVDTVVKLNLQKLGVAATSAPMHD
Format: biochemical
Protocol: as §1, §2, §3
In the case of `CC(C)c1ccccc1OCCNS(=O)(=O)c1ccc2ccccc2c1` [Compound 7], the “Stimulation of the interaction between PYL2 and PP2C (binding signal)” value was “++ (++ is 25,000−75,000)”.
With `CC1(C)CC(=O)C(/C=N/CCc2ccc(S(N)(=O)=O)cc2)=C(O)C1` [Compound 10] the “Stimulation of the interaction between PYL2 and PP2C (binding signal)” value was “+ (+ is <25,000)”.
`Cc1ccc(C(=O)O)cc1NC(=S)NC(=O)c1ccccc1Cl` [Compound 14] was tested, and the “Stimulation of the interaction between PYL2 and PP2C (binding signal)” value was “+ (+ is <25,000)”.

Each compound was assayed against T4, His6-PYL3 / biotin-PP2C (Arabidopsis thaliana, UniProt Q9SSM7) (assay: AlphaScreen luminescence proximity assay, PYL3-PP2C interaction). Conditions: 100 nM His6-PYL3, 100 nM biotin-PP2C, 100 μM agonist; normalized against a pyrabactin control.
T4 construct: made in house; host or cells: not expressly stated for PYL3
T4 sequence (Q9SSM7 1-209): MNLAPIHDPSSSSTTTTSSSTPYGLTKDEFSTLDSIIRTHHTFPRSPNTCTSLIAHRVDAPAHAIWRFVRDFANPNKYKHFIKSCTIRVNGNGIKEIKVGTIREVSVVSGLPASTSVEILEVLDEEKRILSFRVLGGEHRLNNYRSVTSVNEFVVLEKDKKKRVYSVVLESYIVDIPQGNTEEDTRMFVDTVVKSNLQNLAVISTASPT
Format: biochemical
Protocol: as §1, §2, §3
`O=S(=O)(NCc1ccccn1)c1ccc2ccccc2c1` [Compound 4] was tested, and the “Stimulation of the interaction between PYL3 and PP2C (binding signal)” value was “+ (+ is <25,000)”.
`CC(C)c1ccccc1OCCNS(=O)(=O)c1ccc2ccccc2c1` [Compound 7] was tested, and the “Stimulation of the interaction between PYL3 and PP2C (binding signal)” value was “+ (+ is <25,000)”.
For `O=S(=O)(NC[C@@H]1CCCO1)c1ccc(Br)c2ccccc12` [Compound 12], the “Stimulation of the interaction between PYL3 and PP2C (binding signal)” value was “+++ (+++ is >75,000)”.
For `CC1(C)CC(=O)C(/C=N/CCc2ccc(S(N)(=O)=O)cc2)=C(O)C1` [Compound 10], the “Stimulation of the interaction between PYL3 and PP2C (binding signal)” value was “+ (+ is <25,000)”.
`Cc1ccc(C(=O)O)cc1NC(=S)NC(=O)c1ccccc1Cl` [Compound 14] was tested, and the “Stimulation of the interaction between PYL3 and PP2C (binding signal)” value was “+ (+ is <25,000)”.
